# ChEMBL document CHEMBL3046685, “Otebo bean (Phaseolus vulgaris) sensitivity to pre-emergence herbicides” (Crop Prot, 2006)
# Assays:
# Phaseolus vulgaris [1] = assay: Phytotoxicity in Phaseolus vulgaris (otebo bean) assessed as visual injury at 2500 g ai/ha applied as spray during pre-emergence treatment for 1 to 2 days measured 14 days post emergence relative to untreated control; type: organism-based; settings: in vivo, other
# Phaseolus vulgaris [2] = assay: Increase in Phaseolus vulgaris (otebo bean) yield at 1250 g ai/ha applied as spray during pre-emergence treatment for 1 to 2 days (reference value: 3.8 t/ha); type: functional
# Phaseolus vulgaris [3] = assay: Phytotoxicity in Phaseolus vulgaris (otebo bean) assessed as visual injury at 2500 g ai/ha applied as spray during pre-emergence treatment for 1 to 2 days measured 7 days post emergence relative to untreated control; type: organism-based; settings: in vivo, other
# Phaseolus vulgaris [4] = assay: Phytotoxicity in Phaseolus vulgaris (otebo bean) assessed as visual injury at 1250 g ai/ha applied as spray during pre-emergence treatment for 1 to 2 days measured 7 days post emergence relative to untreated control; type: organism-based; settings: in vivo, other
# Phaseolus vulgaris [5] = assay: Phytotoxicity in Phaseolus vulgaris (otebo bean) assessed as visual injury at 2500 g ai/ha applied as spray during pre-emergence treatment for 1 to 2 days measured 28 days post emergence relative to untreated control; type: organism-based; settings: in vivo, other
# Phaseolus vulgaris [6] = assay: Phytotoxicity in Phaseolus vulgaris (otebo bean) assessed as plant height at 2500 g ai/ha applied as spray during pre-emergence treatment for 1 to 2 days measured 28 days post emergence (reference value: 29 cm); type: organism-based; settings: in vivo, other
# Phaseolus vulgaris [7] = assay: Phytotoxicity in Phaseolus vulgaris (otebo bean) assessed as shoot dry weight at 1250 g ai/ha applied as spray during pre-emergence treatment for 1 to 2 days measured 42 days post emergence (reference value: 164 g); type: organism-based; settings: in vivo, other
# Phaseolus vulgaris [8] = assay: Phytotoxicity in Phaseolus vulgaris (otebo bean) assessed as shoot dry weight at 2500 g ai/ha applied as spray during pre-emergence treatment for 1 to 2 days measured 42 days post emergence (reference value: 164 g); type: organism-based; settings: in vivo, other
# Vigna angularis [9] = assay: Phytotoxicity in Vigna angularis (adzuki bean) assessed as reduction in shoot dry weight at 2500 g ai/ha applied prior to planting relative to control; type: organism-based; set-up: scale not given: the % may be the effect or the level left; settings: in vivo, other
# Vigna angularis [10] = assay: Phytotoxicity in Vigna angularis (adzuki bean) assessed as visual injury at 2500 g ai/ha applied prior to planting relative to control; type: organism-based; settings: in vivo, other
# Phaseolus vulgaris [11] = assay: Increase in Phaseolus vulgaris (otebo bean) yield at 2500 g ai/ha applied as spray during pre-emergence treatment for 1 to 2 days (reference value: 3.8 t/ha); type: functional
# Vigna angularis [12] = assay: Phytotoxicity in Vigna angularis (adzuki bean) assessed as reduction in crop yield at 2500 g ai/ha applied prior to planting relative to control; type: organism-based; settings: in vivo, other
# Phaseolus vulgaris [13] = assay: Phytotoxicity in Phaseolus vulgaris (otebo bean) assessed as visual injury at 1250 g ai/ha applied as spray during pre-emergence treatment for 1 to 2 days measured 14 days post emergence relative to untreated control; type: organism-based; settings: in vivo, other
# Phaseolus vulgaris [14] = assay: Phytotoxicity in Phaseolus vulgaris (otebo bean) assessed as visual injury at 1250 g ai/ha applied as spray during pre-emergence treatment for 1 to 2 days measured 28 days post emergence relative to untreated control; type: organism-based; settings: in vivo, other
# Phaseolus vulgaris [15] = assay: Phytotoxicity in Phaseolus vulgaris (otebo bean) assessed as change in moisture content at 1250 to 2500 g ai/ha applied as spray during preemergence treatment for 1 to 2 days; type: organism-based; settings: in vivo, other
# Phaseolus vulgaris [16] = assay: Phytotoxicity in Phaseolus vulgaris (otebo bean) assessed as plant height at 1250 g ai/ha applied as spray during pre-emergence treatment for 1 to 2 days measured 28 days post emergence (reference value: 29 cm); type: organism-based; settings: in vivo, other
# Phaseolus vulgaris [17] = assay: Phytotoxicity in Phaseolus vulgaris (otebo bean) assessed as shoot dry weight at 1600 g ai/ha applied as spray during pre-emergence treatment for 1 to 2 days measured 42 days post emergence (reference value: 164 g); type: organism-based; settings: in vivo, other
# Phaseolus vulgaris [18] = assay: Phytotoxicity in Phaseolus vulgaris (otebo bean) assessed as visual injury at 1600 g ai/ha applied as spray during pre-emergence treatment for 1 to 2 days measured 7 days post emergence relative to untreated control; type: organism-based; settings: in vivo, other
# Phaseolus vulgaris [19] = assay: Phytotoxicity in Phaseolus vulgaris (otebo bean) assessed as plant height at 3200 g ai/ha applied as spray during pre-emergence treatment for 1 to 2 days measured 28 days post emergence (reference value: 29 cm); type: organism-based; settings: in vivo, other
# Phaseolus vulgaris [20] = assay: Phytotoxicity in Phaseolus vulgaris (otebo bean) assessed as visual injury at 1600 g ai/ha applied as spray during pre-emergence treatment for 1 to 2 days measured 14 days post emergence relative to untreated control; type: organism-based; settings: in vivo, other
# Phaseolus vulgaris [21] = assay: Phytotoxicity in Phaseolus vulgaris (otebo bean) assessed as shoot dry weight at 3200 g ai/ha applied as spray during pre-emergence treatment for 1 to 2 days measured 42 days post emergence (reference value: 164 g); type: organism-based; settings: in vivo, other
# Phaseolus vulgaris [22] = assay: Phytotoxicity in Phaseolus vulgaris (otebo bean) assessed as visual injury at 3200 g ai/ha applied as spray during pre-emergence treatment for 1 to 2 days measured 28 days post emergence relative to untreated control; type: organism-based; settings: in vivo, other
# Phaseolus vulgaris [23] = assay: Phytotoxicity in Phaseolus vulgaris (otebo bean) assessed as plant height at 1600 g ai/ha applied as spray during pre-emergence treatment for 1 to 2 days measured 28 days post emergence (reference value: 29 cm); type: organism-based; settings: in vivo, other
# Phaseolus vulgaris [24] = assay: Phytotoxicity in Phaseolus vulgaris (otebo bean) assessed as visual injury at 1600 g ai/ha applied as spray during pre-emergence treatment for 1 to 2 days measured 28 days post emergence relative to untreated control; type: organism-based; settings: in vivo, other
# Phaseolus vulgaris [25] = assay: Phytotoxicity in Phaseolus vulgaris (otebo bean) assessed as visual injury at 3200 g ai/ha applied as spray during pre-emergence treatment for 1 to 2 days measured 7 days post emergence relative to untreated control; type: organism-based; settings: in vivo, other
# Phaseolus vulgaris [26] = assay: Phytotoxicity in Phaseolus vulgaris (otebo bean) assessed as visual injury at 3200 g ai/ha applied as spray during pre-emergence treatment for 1 to 2 days measured 14 days post emergence relative to untreated control; type: organism-based; settings: in vivo, other
# Phaseolus vulgaris [27] = assay: Increase in Phaseolus vulgaris (otebo bean) yield at 1600 g ai/ha applied as spray during pre-emergence treatment for 1 to 2 days (reference value: 3.8 t/ha); type: functional
# Phaseolus vulgaris [28] = assay: Increase in Phaseolus vulgaris (otebo bean) yield at 3200 g ai/ha applied as spray during pre-emergence treatment for 1 to 2 days (reference value: 3.8 t/ha); type: functional
# Phaseolus vulgaris [29] = assay: Phytotoxicity in Phaseolus vulgaris (otebo bean) assessed as change in moisture content at 1600 to 3200 g ai/ha applied as spray during preemergence treatment for 1 to 2 days; type: organism-based; settings: in vivo, other
structure (smiles),measurement,setting,value
COCC(C)N(C(=O)CCl)c1c(C)csc1C (centres undefined) [DIMETHENAMID],Activity,Phaseolus vulgaris [1],3%
same,Crop_yield,Phaseolus vulgaris [2],4.5 tons/ha
same,Activity,Phaseolus vulgaris [3],4%
same,Activity,Phaseolus vulgaris [4],1%
same,Activity,Phaseolus vulgaris [5],1%
same,Activity,Phaseolus vulgaris [6],29 cm
same,Activity,Phaseolus vulgaris [7],167 g
same,Activity,Phaseolus vulgaris [8],154 g
same,Activity,Vigna angularis [9],53%
same,Activity,Vigna angularis [10],37%
same,Crop_yield,Phaseolus vulgaris [11],4.5 tons/ha
same,Crop_yield,Vigna angularis [12],38%
same,Activity,Phaseolus vulgaris [13],1%
same,Activity,Phaseolus vulgaris [14],0%
same,Activity,Phaseolus vulgaris [15],Non-toxic
same,Activity,Phaseolus vulgaris [16],30 cm
CCc1cccc(C)c1N(C(=O)CCl)[C@@H](C)COC [S-METOLACHLOR],Activity,Phaseolus vulgaris [17],175 g
same,Activity,Phaseolus vulgaris [18],2%
same,Activity,Phaseolus vulgaris [19],29 cm
same,Activity,Phaseolus vulgaris [20],1%
same,Activity,Phaseolus vulgaris [21],164 g
same,Activity,Phaseolus vulgaris [22],0%
same,Activity,Phaseolus vulgaris [23],30 cm
same,Activity,Phaseolus vulgaris [24],0%
same,Activity,Phaseolus vulgaris [25],4%
same,Activity,Phaseolus vulgaris [26],2%
same,Crop_yield,Phaseolus vulgaris [27],4.1 tons/ha
same,Crop_yield,Phaseolus vulgaris [28],4.6 tons/ha
same,Activity,Phaseolus vulgaris [29],Non-toxic
